According to PMC8269107, “Lipidation of Temporin-1CEb Derivatives as a Tool for Activity Improvement, Pros and Cons of the Approach” (International Journal of Molecular Sciences, 2021):
In brackets after ≈: the same amount, converted by molar mass. Where no end group is shown, it is not given here.

Key:
Gelation in water = type: physicochemical; details: for gel formation in water: within the range of analyzed concentrations
B. subtilis PCM 2224 = assay: MIC, broth microdilution; type: cell-based, Bacillus subtilis; details: B. subtilis PCM 2224, 24 h
Source text: (§1) Escherichia coli (PCM 2057 = ATCC 25922), Staphylococcus aureus (PCM 2054 = ATCC 25923), Staphylococcus epidermidis (PCM 2118 = ATCC 14990), Bacillus subtilis (PCM 2224 = ATCC 9799), Bacillus cereus (PCM 482 = ATCC 10702) and Pseudomonas aeruginosa (PCM 499 = ATCC 10145) were obtained from the Polish Collection of Microorganisms. Fungi strains Candida albicans (CCM 8186 = CNTC 49/64), Candida glabrata (CCM 8270 = ATCC 90030), Candida parapsilosis (CCM 8260 = ATCC 22019) and Candida krusei (CCM 8271 = ATCC 6258) were acquired from the Czech Collection of Microorganisms. S. aureus USA300 (wild type strain), the reference strain of Klebsiella pneumoniae (ATCC 13883) and clinical isolates of Pseudomonas aeruginosa (PA1, PA2) collected from nonrelated patients admitted to the Stefan Zeromski Specialist Municipal Hospital in Krakow (Poland) were kindly provided by the research group of the Department of Microbiology, Faculty of Biochemistry, Biophysics and Biotechnology, Jagiellonian University, Krakow, Poland.
(§2) Luria-Bertani broth (LB) and Sabouraud Dextrose broth (SB) (Biocorp, Poland) were used for cultivation of bacteria and fungi strains, respectively. The antimicrobial activity of the peptides were analyzed through determination of MIC (minimal inhibitory concentration) parameters according to Clinical and Laboratory Standards (CLSI) guidelines developed for aerobic bacteria and yeasts, respectively. Mueller-Hinton broth (MHB) was used as the working medium for all bacterial strains, while in the case of fungi, RPMI-1640 (with L-glutamine, without sodium bicarbonate) growth medium buffered with MOPS (morpholinepropanesulfonic acid) and supplemented with 2% glucose was used. Inoculum was prepared from freshly grown cultures of microorganisms at their exponential phase of growth. […] Plates were then incubated for 24 h at 37 °C in the case of bacteria and at 35 °C in the case of fungi. After that time, absorbance was read at 590 nm with a Perkin Elmer plate reader. Cultures without peptide were treated as positive control, while uninoculated media were defined as negative control. All measurements were run at least in triplicate.

B. cereus PCM 482 = assay: MIC, broth microdilution; type: cell-based, Bacillus cereus; details: B. cereus PCM 482, 24 h
Source text: as §1, §2

S. aureus PCM 2054 = assay: MIC, broth microdilution; type: cell-based, Staphylococcus aureus; details: S. aureus PCM 2054, standard Mueller-Hinton broth, 24 h
Source text: as §1, §2

E. coli PCM 2057 = assay: MIC, broth microdilution; type: cell-based, Escherichia coli; details: E. coli PCM 2057, 24 h
Source text: as §1, §2

C.parapsilosis CCM 8260 = assay: MIC, broth microdilution; type: cell-based, Candida parapsilosis; details: C.parapsilosis CCM 8260, 24 h
Source text: as §1, §2

C.albicans CCM 8186 = assay: MIC, broth microdilution; type: cell-based, Candida albicans; details: C.albicans CCM 8186, 24 h
Source text: as §1, §2

S. epidermidis PCM 2118 = assay: MIC, broth microdilution; type: cell-based, Staphylococcus epidermidis; details: S. epidermidis PCM 2118, 24 h
Source text: as §1, §2

C.krusei CCM 8271 = assay: MIC, broth microdilution; type: cell-based, Candida krusei; details: C.krusei CCM 8271, 24 h
Source text: as §1, §2

P. aeruginosa PCM 499 = assay: MIC, broth microdilution; type: cell-based, Pseudomonas aeruginosa; details: P. aeruginosa PCM 499, 24 h
Source text: as §1, §2

keratinocytes (HaCaT) = assay: Cytotoxicity, MTT assay; type: cell-based, human; details: 24 h
Method: (§3) Human dermal fibroblasts were obtained as previously reported from biopsies of healthy human skin of three donors undergoing a surgery. All procedures were approved by the Ethics Committee of Medicinal University of Gdansk (NKEBN/483/2011 and NKBBN/745/2019-2020). Immortalized human HaCaT keratinocytes (DKFZ Heidelberg, Germany) were obtained commercially.
(§4) Both types of cell lines were grown in Dulbecco′s Modified Eagle′s Medium (DMEM) (Sigma-Aldrich, Germany), containing […] of glucose, […] of L- glutamine, sodium pyruvate and sodium bicarbonate. Additionally, the medium was supplemented with 10% FCS (fetal calf serum, Sigma-Aldrich, Germany), 100 U/mL of penicillin and 100 μg/mL of streptomycin (Sigma-Aldrich, Germany). The cells were grown in standard culture dishes (BD, USA) in a humidified atmosphere with 5% CO2 at […], and the medium was changed every 2 days.
(§5) The fibroblasts and keratinocytes were seeded at density of 5500 cells per well into 96-well plates suspended in a medium supplemented with 10% FCS. After 24 h from seeding, the media were exchanged with serum- and antibiotic-free DMEM and tested peptides, dissolved in sterile water, which were added, yielding a final concentration ranging from 1 to 50 μg/mL. The cells were then incubated for the next 24 h. At the end of the experiment, the cells were treated with 20 μL of MTT (5 mg/mL in PBS). After 3 h of incubation in the presence of MTT dye, the DMEM medium was discarded and replaced with 6 mM HCl in isopropanol. When the purple crystals of formazan were fully solubilized, absorbance at 570 nm was read.

primary fibroblasts = assay: Cytotoxicity, MTT assay; type: cell-based, human; details: 24 h
Method: as §3, §4, §5

C.glabrata CCM 8270 = assay: MIC, broth microdilution; type: cell-based, Candida glabrata; details: C.glabrata CCM 8270, 24 h
Source text: as §1, §2

P. aeruginosa PA1 = type: cell-based, Pseudomonas aeruginosa; details: PA1, 24 h
Source text: as §1, §2

P. aeruginosa PA2 = type: cell-based, Pseudomonas aeruginosa; details: PA2, 24 h
Source text: as §1, §2

K.pneumoniae ATCC 13883 = type: cell-based, Klebsiella pneumoniae; details: ATCC 13883, 24 h
Source text: as §1, §2

Row | Molecule | gelation in water (Gelation in water; concentrations of up to 5 mg/mL) | MIC100 (B. subtilis PCM 2224) | MIC100 (B. cereus PCM 482) | MIC100 (S. aureus PCM 2054) | MIC100 (E. coli PCM 2057) | MIC100 (C.parapsilosis CCM 8260) | MIC100 (C.albicans CCM 8186) | MIC100 (S. epidermidis PCM 2118) | MIC100 (C.krusei CCM 8271) | MIC100 (P. aeruginosa PCM 499) | IC50 (keratinocytes (HaCaT)) [mg/L] | IC50 (primary fibroblasts) [mg/L] | MIC100 (C.glabrata CCM 8270) | gelation of water solution (Gelation in water; concentration of 1 mg/mL) | gel formation in water (Gelation in water) | MIC100 (P. aeruginosa PA1) [mg/L] | MIC100 (P. aeruginosa PA2) [mg/L] | MIC100 (K.pneumoniae ATCC 13883) [mg/L]
1 | CCCCC(=O)NCCC(=O)N[C@@H](Cc1c[nH]cn1)C(=O)O [Compound C5-CAR, CH3(CH2)3C(O)-βAH] | gelation in water was not observed | Non-inhibitory | Non-inhibitory | Non-inhibitory | Non-inhibitory | Non-inhibitory | Non-inhibitory | Non-inhibitory | Non-inhibitory | Non-inhibitory | >50 | >50 | Non-inhibitory | – | – | – | – | –
2 | CCCCCCCCCCCC(=O)NCCC(=O)N[C@@H](Cc1c[nH]cn1)C(=O)O [Compound C12-CAR, CH3(CH2)10C(O)-βAH] | – | Non-inhibitory | Non-inhibitory | Non-inhibitory | Non-inhibitory | Non-inhibitory | Non-inhibitory | Non-inhibitory | Non-inhibitory | Non-inhibitory | >50 | >50 | Non-inhibitory | underwent gelation | formed self-standing gels in water | – | – | –
3 | CCCCCCCCCCCCCCCC(=O)NCCC(=O)N[C@@H](Cc1c[nH]cn1)C(=O)O [Compound C16-CAR, CH3(CH2)14C(O)-βAH] | – | Non-inhibitory | Non-inhibitory | Non-inhibitory | Non-inhibitory | Non-inhibitory | Non-inhibitory | Non-inhibitory | Non-inhibitory | Non-inhibitory | 25 (≈ 53.8 µM) | 12.5 (≈ 26.9 µM) | Non-inhibitory | – | formed self-standing gels in water | – | – | –
4 | IKKILSKIKKLL-NH2 (C-terminus assumed) [DK5, reference compound] | – | – | – | – | – | – | – | – | – | – | >50 | >50 | – | – | – | 100 | 100 | >200
